Common to all, as to test: relative viability (nuclei count vs DMSO), 5 days (fraction); higher = more cells survive
Compound in the test “RAF265 + OSI-027”: Cn1c(Nc2ccc(C(F)(F)F)cc2)nc2cc(Oc3ccnc(-c4ncc(C(F)(F)F)[nH]4)c3)ccc21 [RAF265] + COc1cccc2cc(-c3nc([C@H]4CC[C@H](C(=O)O)CC4)n4ncnc(N)c34)[nH]c12 [OSI-027] (partner 0.5 µM)
The essentials: (§1)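 Nuclei were stained with Hoechst during a one-step fixation (final 0.05% Triton X-100, 1% formaldehyde, 1 ug/ml Hoechst) carried out 5 days after dosing, then counted on 4× images. The cells, lung cancer lines in 1536-well plates, had been dosed by pin tool the day after seeding with one drug alone or a fixed anchor-drug dose plus five library-drug doses (not always all listed) in √10 steps. Relative viability is the nuclei count in treated wells divided by that in vehicle wells, and each value is the median of duplicate plates.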

Compound in the test “Doramapimod + Pictilisib”: Cc1ccc(-n2nc(C(C)(C)C)cc2NC(=O)Nc2ccc(OCCN3CCOCC3)c3ccccc23)cc1 [Doramapimod] + CS(=O)(=O)N1CCN(Cc2cc3nc(-c4cccc5[nH]ncc45)nc(N4CCOCC4)c3s2)CC1 [Pictilisib] (partner 1 µM)
The method, boiled down: as §1

Compound in the test “RAF265 + Phenformin”: Cn1c(Nc2ccc(C(F)(F)F)cc2)nc2cc(Oc3ccnc(-c4ncc(C(F)(F)F)[nH]4)c3)ccc21 [RAF265] + N=C(N)NC(=N)NCCc1ccccc1 [Phenformin] (partner 250 µM)
The method, boiled down: as §1

Compound in the test “IPA-3 + Linsitinib”: C1=CC=C2C(=C1)C=CC(=C2SSC3=C(C=CC4=CC=CC=C43)O)O [IPA-3] + C[C@]1(O)C[C@@H](c2nc(-c3ccc4ccc(-c5ccccc5)nc4c3)c3c(N)nccn32)C1 [Linsitinib] (partner 1 µM)
The method, boiled down: as §1

Consider UMC-11, for which the relative viability with RAF265 + OSI-027 (first compound 0.01 µM) is 0.491; with RAF265 + OSI-027 (first compound 0.03162 µM) it was 0.48; with RAF265 + OSI-027 (first compound 0.1 µM) it was 0.464; with RAF265 + OSI-027 (first compound 0.3162 µM) it was 0.457; with RAF265 + OSI-027 (first compound 1 µM), 0.378; with Doramapimod + Pictilisib (first compound 0.02 µM), 0.726. Further, the relative viability in the test with Doramapimod + Pictilisib (first compound 0.06325 µM) turned out to be 0.759; in the test with Doramapimod + Pictilisib (first compound 0.2 µM), 0.726; with Doramapimod + Pictilisib (first compound 0.6325 µM), 0.547; with Doramapimod + Pictilisib (first compound 2 µM), 0.615; in the test with RAF265 + Phenformin (first compound 0.01 µM), 0.354; with RAF265 + Phenformin (first compound 0.03162 µM), 0.332. In addition, the relative viability in the test with RAF265 + Phenformin (first compound 0.1 µM) was 0.32; in the test with RAF265 + Phenformin (first compound 0.3162 µM) it was 0.318; with RAF265 + Phenformin (first compound 1 µM), 0.259; with IPA-3 + Linsitinib (first compound 0.2 µM), 1.28; with IPA-3 + Linsitinib (first compound 0.6325 µM), 0.923; in the test with IPA-3 + Linsitinib (first compound 2 µM), 1.07. Moreover, the results for the relative viability with IPA-3 + Linsitinib (first compound 6.325 µM) and with IPA-3 + Linsitinib (first compound 20 µM) were 1.04 and 1.24, respectively.

These data come from the supplement of paper PMC10307832.
